Measured values published in PubChem BioAssay AID248 (DTP/NCI, 2004).
Values joined by “and” are separate entries in the source; they are usually repeats but may differ in a detail not shown here. Equal entries are not always repeated. Toxic doses and inconclusive results are not listed. Rule as the data show it: active = T/C of 150% or more; inactive = T/C below 125%.

Tested on: L1210 leukemia ip in BDF1 mice, survival T/C
Assay: NCI In Vivo Anticancer Drug Screen. Data for tumor model L1210 Leukemia (intraperitoneal) in B6D2F1 (BDF1) mice
Conditions: endpoint: mean survival time, higher = longer survival
How it was run: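 Transplantable tumor model; survival measured in treated vs vehicle control mice. Value = treated/control.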

[1] = dose: 25.0 mg/kg/injection, schedule: Q04DX003 (ip), vehicle: saline
[2] = dose: 75.0 mg/kg/injection, schedule: Q01DX001 (ip), vehicle: carboxymethylcellulose (CMC)
[3] = dose: 50.0 mg/kg/injection, schedule: Q01DX009 (ip), vehicle: saline with Tween-80
[4] = dose: 100.0 mg/kg/injection, schedule: Q01DX005 (ip), vehicle: saline

Measured: T/C

NS(=O)(=O)c1ncnc2nc[nH]c12
active: dose: 75.0 mg/kg/injection, schedule: Q01DX Z (ip), vehicle: carboxymethylcellulose (CMC) 152 % of control and 159 % of control and 165 % of control
inactive: dose: 5.0 mg/kg/injection, schedule: Q01DX Z (ip), vehicle: methylcellulose (MC) 108 % of control | dose: 10.0 mg/kg/injection, schedule: Q01DX Z (ip), vehicle: methylcellulose (MC) 109 % of control | dose: 22.0 mg/kg/injection, schedule: Q01DX001 (ip), vehicle: carboxymethylcellulose (CMC) 109 % of control and 117 % of control | dose: 22.0 mg/kg/injection, schedule: Q01DX Z (ip), vehicle: carboxymethylcellulose (CMC) 124 % of control | dose: 24.75 mg/kg/injection, schedule: Q01DX009 (ip), vehicle: saline 121 % of control | [1] 117 % of control | dose: 30.0 mg/kg/injection, schedule: Q04DX003 (ip), vehicle: saline 121 % of control | dose: 33.0 mg/kg/injection, schedule: Q01DX001 (ip), vehicle: carboxymethylcellulose (CMC) 107 % of control and 109 % of control | dose: 33.0 mg/kg/injection, schedule: Q01DX Z (ip), vehicle: carboxymethylcellulose (CMC) 120 % of control | dose: 37.5 mg/kg/injection, schedule: Q01DX009 (ip), vehicle: saline 119 % of control | dose: 50.0 mg/kg/injection, schedule: Q01DX001 (ip), vehicle: carboxymethylcellulose (CMC) 114 % of control and 119 % of control | dose: 50.0 mg/kg/injection, schedule: Q04DX003 (ip), vehicle: saline 120 % of control | dose: 66.0 mg/kg/injection, schedule: Q04DX003 (ip), vehicle: saline 114 % of control | [2] 117 % of control | dose: 75.0 mg/kg/injection, schedule: Q01DX009 (ip), vehicle: saline with Tween-80 101 % of control | dose: 100.0 mg/kg/injection, schedule: Q01DX001 (ip), vehicle: saline 115 % of control | dose: 114.0 mg/kg/injection, schedule: Q01DX Z (ip), vehicle: carboxymethylcellulose (CMC) 93 % of control | dose: 200.0 mg/kg/injection, schedule: Q01DX Z (ip), vehicle: methylcellulose (MC) 113 % of control

COC(=O)Nc1cccc(OC(=O)NC(C)C)c1
inactive: dose: 100.0 mg/kg/injection, schedule: Q04DX003 (ip), vehicle: saline with Tween-80 95 % of control | dose: 200.0 mg/kg/injection, schedule: Q04DX003 (ip), vehicle: saline with Tween-80 93 % of control | dose: 400.0 mg/kg/injection, schedule: Q04DX003 (ip), vehicle: saline with Tween-80 93 % of control

CCOC(=O)OC1CC/C(=N\NC(N)=S)C1 (stereo unspecified)
inactive: dose: 15.0 mg/kg/injection, schedule: Q01DX Z (ip), vehicle: methylcellulose (MC) 104 % of control | dose: 30.0 mg/kg/injection, schedule: Q01DX Z (ip), vehicle: methylcellulose (MC) 101 % of control | dose: 60.0 mg/kg/injection, schedule: Q01DX Z (ip), vehicle: methylcellulose (MC) 108 % of control | dose: 120.0 mg/kg/injection, schedule: Q01DX Z (ip), vehicle: methylcellulose (MC) 98 % of control

O=C(CNC(=O)NCc1ccccc1)N/N=C/c1cccc([N+](=O)[O-])c1
inactive: dose: 12.5 mg/kg/injection, schedule: Q01DX009 (ip), vehicle: saline with Tween-80 91 % of control | dose: 25.0 mg/kg/injection, schedule: Q01DX009 (ip), vehicle: saline with Tween-80 88 % of control | [3] 92 % of control and 88 % of control

CCOC(=O)C(CO)(CC(CO)(C(C)=O)C(=O)OCC)C(C)=O (stereo unspecified)
inactive: dose: 222.0 mg/kg/injection, schedule: Q01DX Z (ip), vehicle: methylcellulose (MC) 98 % of control | dose: 333.0 mg/kg/injection, schedule: Q01DX Z (ip), vehicle: methylcellulose (MC) 110 % of control | dose: 500.0 mg/kg/injection, schedule: Q01DX Z (ip), vehicle: methylcellulose (MC) 108 % of control

Cc1ccc([N+](=O)[O-])cc1NC(=O)Nc1ccc(C(=O)O)cc1
inactive: dose: 100.0 mg/kg/injection, schedule: Q01DX009 (ip), vehicle: Klucel (hydroxypropylcellulose) (HPC) 90 % of control | dose: 200.0 mg/kg/injection, schedule: Q01DX009 (ip), vehicle: Klucel (hydroxypropylcellulose) (HPC) 98 % of control | dose: 400.0 mg/kg/injection, schedule: Q01DX009 (ip), vehicle: Klucel (hydroxypropylcellulose) (HPC) 104 % of control

CC1=C(Cl)C(=O)C(Cl)=C(C)C1=O
inactive: dose: 5.5 mg/kg/injection, schedule: Q01DX Z (ip), vehicle: methylcellulose (MC) 93 % of control | dose: 8.3 mg/kg/injection, schedule: Q01DX Z (ip), vehicle: methylcellulose (MC) 107 % of control | dose: 12.5 mg/kg/injection, schedule: Q01DX Z (ip), vehicle: methylcellulose (MC) 102 % of control

Cc1ccc(NC(=O)Nc2cc(S(=O)(=O)O)ccc2Oc2ccccc2Cl)cc1
inactive: dose: 100.0 mg/kg/injection, schedule: Q01DX009 (ip), vehicle: saline sonified 95 % of control | dose: 200.0 mg/kg/injection, schedule: Q01DX009 (ip), vehicle: saline sonified 103 % of control

COC(=N)c1ccc(O)cc1
inactive: dose: 100.0 mg/kg/injection, schedule: Q04DX002 (ip), vehicle: saline with Tween-80 94 % of control | dose: 200.0 mg/kg/injection, schedule: Q04DX002 (ip), vehicle: saline with Tween-80 98 % of control

Nc1nc(SCCc2ccccc2)c2[nH]cnc2n1
inactive: dose: 125.0 mg/kg/injection, schedule: Q01DX Z (ip), vehicle: carboxymethylcellulose (CMC) 97 % of control | dose: 200.0 mg/kg/injection, schedule: Q01DX Z (ip), vehicle: carboxymethylcellulose (CMC) 123 % of control | dose: 250.0 mg/kg/injection, schedule: Q01DX Z (ip), vehicle: carboxymethylcellulose (CMC) 100 % of control | dose: 500.0 mg/kg/injection, schedule: Q01DX Z (ip), vehicle: carboxymethylcellulose (CMC) 106 % of control | dose: 1000.0 mg/kg/injection, schedule: Q01DX Z (ip), vehicle: carboxymethylcellulose (CMC) 93 % of control

COc1ncnc2c(C3OC(CO)C(O)C3O)[nH]nc12 (stereo unspecified)
inactive: [4] 103 % of control | dose: 200.0 mg/kg/injection, schedule: Q01DX005 (ip), vehicle: saline 97 % of control

CC(C)=C(CO)CCC(C)C
inactive: [3] 100 % of control | dose: 100.0 mg/kg/injection, schedule: Q01DX009 (ip), vehicle: saline with Tween-80 94 % of control | dose: 200.0 mg/kg/injection, schedule: Q01DX009 (ip), vehicle: saline with Tween-80 89 % of control

COC(=O)CN(c1c(C)cc(C)c(NS(=O)(=O)c2ccccc2)c1C)S(=O)(=O)c1ccccc1
inactive: dose: 100.0 mg/kg/injection, schedule: Q01DX001 (ip), vehicle: Klucel (hydroxypropylcellulose) (HPC) 92 % of control | dose: 200.0 mg/kg/injection, schedule: Q01DX001 (ip), vehicle: Klucel (hydroxypropylcellulose) (HPC) 96 % of control | dose: 400.0 mg/kg/injection, schedule: Q01DX001 (ip), vehicle: Klucel (hydroxypropylcellulose) (HPC) 97 % of control

NC(=S)N/N=C/c1ccc(Cl)cn1
inactive: dose: 7.33 mg/kg/injection, schedule: Q04DX003 (ip), vehicle: saline with Tween-80 97 % of control | dose: 11.0 mg/kg/injection, schedule: Q01DX001 (ip), vehicle: saline with Tween-80 95 % of control | dose: 11.0 mg/kg/injection, schedule: Q04DX003 (ip), vehicle: saline with Tween-80 104 % of control | dose: 16.5 mg/kg/injection, schedule: Q01DX001 (ip), vehicle: saline with Tween-80 105 % of control | dose: 16.5 mg/kg/injection, schedule: Q04DX003 (ip), vehicle: saline with Tween-80 116 % of control | dose: 25.0 mg/kg/injection, schedule: Q01DX001 (ip), vehicle: saline with Tween-80 111 % of control | dose: 25.0 mg/kg/injection, schedule: Q04DX003 (ip), vehicle: saline with Tween-80 121 % of control

Cc1ccc(S(=O)(=O)OC2CCN(C)CC2)cc1
inactive: dose: 6.0 mg/kg/injection, schedule: Q01DX009 (ip), vehicle: saline 91 % of control | dose: 12.0 mg/kg/injection, schedule: Q01DX009 (ip), vehicle: saline 93 % of control | dose: 12.0 mg/kg/injection, schedule: Q04DX003 (ip), vehicle: saline 102 % of control | dose: 25.0 mg/kg/injection, schedule: Q01DX005 (ip), vehicle: saline 97 % of control | dose: 25.0 mg/kg/injection, schedule: Q01DX009 (ip), vehicle: saline 93 % of control and 94 % of control | [1] 96 % of control | dose: 50.0 mg/kg/injection, schedule: Q01DX005 (ip), vehicle: saline 97 % of control | dose: 50.0 mg/kg/injection, schedule: Q01DX009 (ip), vehicle: saline 96 % of control | [4] 97 % of control and 99 % of control | dose: 100.0 mg/kg/injection, schedule: Q01DX009 (ip), vehicle: saline 112 % of control

COC(=O)/C=C/C(=O)O
inactive: [2] 86 % of control

CCC(=O)OC1(c2ccccc2)CCN(CCC(=O)c2ccccc2)CC1
inactive: dose: 25.0 mg/kg/injection, schedule: Q04DX003 (ip), vehicle: Klucel (hydroxypropylcellulose) (HPC) 103 % of control | dose: 50.0 mg/kg/injection, schedule: Q04DX003 (ip), vehicle: Klucel (hydroxypropylcellulose) (HPC) 101 % of control | dose: 100.0 mg/kg/injection, schedule: Q04DX003 (ip), vehicle: Klucel (hydroxypropylcellulose) (HPC) 95 % of control and 98 % of control
